From US11566022B2, “3-(5-methoxy-1-oxoisoindolin-2-yl)piperidine-2,6-dione derivatives and uses thereof” (NOVARTIS AG, priority 2019, dated 2023) come the findings set out here.

The target of the experiment is HiBit-WIZ fusion protein (Homo sapiens, UniProt O95785+Q96SW2). Nature of the experiment: Quantification of WIZ protein levels in HiBit tag fusion protein assay (WIZ HiBit assay in 293T cells). Type of experiment: cell-based. Also on record: Dmax: dose or concentration left out as unconfirmed. On the technique in general: The HiBiT peptide binds its large partner to form an active luciferase.
Sequence of HiBit-WIZ fusion protein (O95785 whole entry, the tested form may be a part): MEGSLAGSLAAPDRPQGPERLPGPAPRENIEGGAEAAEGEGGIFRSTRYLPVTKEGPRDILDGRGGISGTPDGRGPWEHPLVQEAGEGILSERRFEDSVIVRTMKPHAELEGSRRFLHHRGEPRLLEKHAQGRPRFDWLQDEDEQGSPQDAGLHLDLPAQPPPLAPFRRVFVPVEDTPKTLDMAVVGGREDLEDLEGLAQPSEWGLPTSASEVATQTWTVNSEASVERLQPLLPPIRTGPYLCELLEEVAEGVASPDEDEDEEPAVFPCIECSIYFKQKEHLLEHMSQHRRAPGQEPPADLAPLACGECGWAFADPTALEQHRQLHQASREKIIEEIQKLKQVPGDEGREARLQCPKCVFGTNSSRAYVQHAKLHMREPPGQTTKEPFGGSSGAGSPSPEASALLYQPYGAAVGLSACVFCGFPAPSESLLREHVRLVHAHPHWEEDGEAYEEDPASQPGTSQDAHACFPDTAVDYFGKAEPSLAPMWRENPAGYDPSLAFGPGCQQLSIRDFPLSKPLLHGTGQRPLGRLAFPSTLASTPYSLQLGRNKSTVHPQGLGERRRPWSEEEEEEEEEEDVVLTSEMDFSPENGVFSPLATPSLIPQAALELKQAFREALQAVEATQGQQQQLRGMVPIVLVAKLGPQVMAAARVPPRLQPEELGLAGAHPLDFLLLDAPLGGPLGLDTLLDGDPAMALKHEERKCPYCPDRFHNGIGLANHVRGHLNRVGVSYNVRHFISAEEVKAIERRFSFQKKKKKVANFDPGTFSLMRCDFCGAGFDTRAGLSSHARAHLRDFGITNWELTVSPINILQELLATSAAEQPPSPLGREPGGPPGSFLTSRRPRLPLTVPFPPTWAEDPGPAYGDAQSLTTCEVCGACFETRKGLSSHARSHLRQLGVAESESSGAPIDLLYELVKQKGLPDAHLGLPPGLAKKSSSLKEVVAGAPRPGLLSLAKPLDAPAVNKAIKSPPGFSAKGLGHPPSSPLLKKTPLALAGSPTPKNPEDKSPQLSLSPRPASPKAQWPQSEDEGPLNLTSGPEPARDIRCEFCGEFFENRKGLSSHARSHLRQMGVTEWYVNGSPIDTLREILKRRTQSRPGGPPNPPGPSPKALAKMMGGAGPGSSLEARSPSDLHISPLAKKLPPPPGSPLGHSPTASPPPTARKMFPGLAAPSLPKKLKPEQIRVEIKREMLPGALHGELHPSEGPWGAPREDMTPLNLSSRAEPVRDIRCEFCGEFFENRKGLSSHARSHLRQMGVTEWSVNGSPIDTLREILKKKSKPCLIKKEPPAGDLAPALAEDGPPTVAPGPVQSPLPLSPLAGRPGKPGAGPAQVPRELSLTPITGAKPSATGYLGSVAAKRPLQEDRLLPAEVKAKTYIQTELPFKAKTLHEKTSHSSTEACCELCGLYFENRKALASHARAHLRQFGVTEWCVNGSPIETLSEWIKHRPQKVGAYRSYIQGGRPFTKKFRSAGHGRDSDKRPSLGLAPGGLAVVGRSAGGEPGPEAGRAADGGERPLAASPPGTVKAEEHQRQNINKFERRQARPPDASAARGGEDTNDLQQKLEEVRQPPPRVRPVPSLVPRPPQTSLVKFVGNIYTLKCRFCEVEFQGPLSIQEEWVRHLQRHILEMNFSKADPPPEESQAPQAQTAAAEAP
Sequence of HiBit-WIZ fusion protein (Q96SW2 whole entry, the tested form may be a part): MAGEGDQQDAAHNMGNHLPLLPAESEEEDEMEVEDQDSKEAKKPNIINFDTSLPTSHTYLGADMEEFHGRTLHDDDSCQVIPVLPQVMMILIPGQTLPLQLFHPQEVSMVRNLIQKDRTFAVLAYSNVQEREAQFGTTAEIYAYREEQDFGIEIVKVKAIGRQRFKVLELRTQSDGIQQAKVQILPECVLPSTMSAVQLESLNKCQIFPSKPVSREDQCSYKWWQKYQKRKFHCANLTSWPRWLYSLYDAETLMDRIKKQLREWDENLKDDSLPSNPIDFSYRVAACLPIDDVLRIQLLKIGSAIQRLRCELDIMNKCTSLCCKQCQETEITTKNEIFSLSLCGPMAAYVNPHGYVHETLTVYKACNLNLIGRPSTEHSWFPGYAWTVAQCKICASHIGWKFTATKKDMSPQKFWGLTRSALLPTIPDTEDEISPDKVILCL
Sequence of HiBit-WIZ fusion protein (Q16531 whole entry partner, the tested form may be a part): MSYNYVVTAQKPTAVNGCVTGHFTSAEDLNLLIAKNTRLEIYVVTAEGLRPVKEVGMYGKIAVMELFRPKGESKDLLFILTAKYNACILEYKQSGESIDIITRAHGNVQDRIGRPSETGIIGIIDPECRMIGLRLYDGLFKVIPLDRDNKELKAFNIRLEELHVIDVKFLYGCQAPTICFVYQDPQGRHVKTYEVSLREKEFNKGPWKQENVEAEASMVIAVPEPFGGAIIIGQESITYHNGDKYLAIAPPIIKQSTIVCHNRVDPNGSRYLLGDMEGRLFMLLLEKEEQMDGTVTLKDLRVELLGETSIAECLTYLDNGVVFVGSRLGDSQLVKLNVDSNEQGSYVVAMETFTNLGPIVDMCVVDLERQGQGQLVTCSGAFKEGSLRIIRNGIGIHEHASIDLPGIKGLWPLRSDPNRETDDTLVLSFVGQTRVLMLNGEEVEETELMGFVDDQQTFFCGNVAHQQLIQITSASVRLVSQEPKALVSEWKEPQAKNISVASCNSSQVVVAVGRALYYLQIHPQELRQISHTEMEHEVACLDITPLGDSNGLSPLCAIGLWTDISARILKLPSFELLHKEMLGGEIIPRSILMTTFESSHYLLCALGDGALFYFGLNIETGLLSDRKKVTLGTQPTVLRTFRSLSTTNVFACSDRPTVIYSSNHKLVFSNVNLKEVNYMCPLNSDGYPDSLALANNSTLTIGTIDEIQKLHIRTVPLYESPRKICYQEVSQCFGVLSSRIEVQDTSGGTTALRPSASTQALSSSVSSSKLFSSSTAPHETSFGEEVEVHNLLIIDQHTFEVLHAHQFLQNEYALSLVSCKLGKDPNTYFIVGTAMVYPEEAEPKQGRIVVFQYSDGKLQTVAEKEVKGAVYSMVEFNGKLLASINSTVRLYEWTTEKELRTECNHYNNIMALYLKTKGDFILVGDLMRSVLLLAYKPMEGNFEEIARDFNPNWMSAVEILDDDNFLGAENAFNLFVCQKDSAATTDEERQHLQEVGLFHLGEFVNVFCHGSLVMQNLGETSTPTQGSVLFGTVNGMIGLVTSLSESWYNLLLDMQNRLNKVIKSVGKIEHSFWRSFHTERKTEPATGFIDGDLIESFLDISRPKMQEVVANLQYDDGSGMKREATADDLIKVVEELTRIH

Where [1] appears, read: HEK-293T, 100 minus Amax; 293T cells; read-out: % degradation of WIZ (100-Amax).
Setting [2] is: HEK-293T, DMSO-normalized, curve-fitted percentage of WIZ-HiBit remaining at 25 uM; 293T cells; read-out: WIZ Amax.
Where [3] appears, read: WIZ HiBit assay in 293T cells; 10-point, 5-fold dose response, highest concentration 25 μM, about 18 hours; read-out: WIZ AC50.

Where two headings read alike, the source gives them in different places.

As for `O=C1CCC(N2Cc3cc(OC[C@H]4CCCCN4Cc4ccc[nH]c4=O)ccc3C2=O)C(=O)N1` (stereo partly drawn) [Compound I-50dp], the Dmax under setting [1] was found to be 65.5%. For the same compound, the remaining activity at up to 25 µM under setting [2] was 34.5%. Besides, the DC50 under setting [3] worked out at 6840 nM.
For `O=C1CCC(N2Cc3cc(OC[C@H]4CCCCN4Cc4ccccc4OCC(=O)N4CCCCC4)ccc3C2=O)C(=O)N1` (stereo partly drawn) [Compound I-50dq], in that order: 71.2%, 28.8% and 770 nM.
The corresponding values for `O=C1CCC(N2Cc3cc(OC[C@H]4CCCCN4Cc4ccnc(N5CCOCC5)c4)ccc3C2=O)C(=O)N1` (stereo partly drawn) [Compound I-50dr] are 85.5%, 14.5% and 97 nM.
The corresponding values for `O=C1CCC(N2Cc3cc(OC[C@H]4CCCCN4Cc4c[nH]cn4)ccc3C2=O)C(=O)N1` (stereo partly drawn) [Compound I-50ds] are 70.8%, 29.2% and 3040 nM.
Consider `N#Cc1ccn2cc(CN3CCCC[C@@H]3COc3ccc4c(c3)CN(C3CCC(=O)NC3=O)C4=O)nc2c1` (stereo partly drawn) [Compound I-50dt], for which the Dmax under setting [1] is 67%. The remaining activity at up to 25 µM under setting [2] came out at 33%. The DC50 under setting [3] came to 2740 nM.
For `Cc1nc(-c2cccc(CN3CCCC[C@@H]3COc3ccc4c(c3)CN(C3CCC(=O)NC3=O)C4=O)c2)no1` (stereo partly drawn) [Compound I-50du], the Dmax under setting [1] came to 78.4%. Further, the remaining activity at up to 25 µM under setting [2] was 21.6%. Under setting [3], the DC50 was found to be 4260 nM.
For `Cc1nnc(-c2ccc(CN3CCCC[C@@H]3COc3ccc4c(c3)CN(C3CCC(=O)NC3=O)C4=O)cc2)o1` (stereo partly drawn) [Compound I-50dv], in that order: 65%, 35% and 2990 nM.
Take `CC(C)Cn1cc(CN2CCCC[C@@H]2COc2ccc3c(c2)CN(C2CCC(=O)NC2=O)C3=O)cn1` (stereo partly drawn) [Compound I-50dw]: the Dmax under setting [1] is 99%. Also, under setting [2], the remaining activity at up to 25 µM turned out to be 1%. Besides, under setting [3], the DC50 is 8 nM.
For the compound `O=C1CCC(N2Cc3cc(OC[C@H]4CCCCN4Cc4ccc(N5CCOCC5)cc4)ccc3C2=O)C(=O)N1` (stereo partly drawn) [Compound I-50dx], the Dmax under setting [1] stood at 98%. Moreover, the remaining activity at up to 25 µM under setting [2] came to 2%. For the same compound, the DC50 under setting [3] was 2 nM.
On to `Cn1ccc2c(CN3CCCC[C@@H]3COc3ccc4c(c3)CN(C3CCC(=O)NC3=O)C4=O)cccc21` (stereo partly drawn) [Compound I-50dy], for which the Dmax under setting [1] turned out to be 96.6%. Moreover, the remaining activity at up to 25 µM under setting [2] stood at 3.4%. The DC50 under setting [3] turned out to be 19 nM.
For `N#Cc1ccccc1CN1CCCC[C@@H]1COc1ccc2c(c1)CN(C1CCC(=O)NC1=O)C2=O` (stereo partly drawn) [Compound I-50dz], in that order: 62.8%, 37.2% and 3270 nM.
For `O=C1CCC(N2Cc3cc(OC[C@@H]4CCCCN4Cc4cocn4)ccc3C2=O)C(=O)N1` (stereo partly drawn) [Compound I-50e], the Dmax under setting [1] was 41.1%. Moreover, under setting [2], the remaining activity at up to 25 µM came to 58.9%. Further, the DC50 under setting [3] is over 25000 nM.
The corresponding values for `CC(C)N1CCC(CN2CCCC[C@@H]2COc2ccc3c(c2)CN(C2CCC(=O)NC2=O)C3=O)CC1` (stereo partly drawn) [Compound I-50ea] are 81%, 19% and 651 nM.
As for `CCN(CC)c1ccc(CN2CCCC[C@@H]2COc2ccc3c(c2)CN(C2CCC(=O)NC2=O)C3=O)cn1` (stereo partly drawn) [Compound I-50eb], the Dmax under setting [1] was determined as 98.5%. In addition, the remaining activity at up to 25 µM under setting [2] was 1.5%. Besides, under setting [3], the DC50 amounted to 2 nM.
With `O=C1CCC(N2Cc3cc(OC[C@H]4CCCCN4Cc4cnn(C5CCCCC5)c4)ccc3C2=O)C(=O)N1` (stereo partly drawn) [Compound I-50ec], the Dmax under setting [1] came out at 100%. The remaining activity at up to 25 µM under setting [2] is 0%. The DC50 under setting [3] amounted to 17 nM.
For `O=C1CCC(N2Cc3cc(OC[C@H]4CCCCN4Cc4ccccc4OCCN4CCOCC4)ccc3C2=O)C(=O)N1` (stereo partly drawn) [Compound I-50ed], in that order: 92.3%, 7.7% and 100 nM.
As to `NS(=O)(=O)c1ccc(CN2CCCC[C@@H]2COc2ccc3c(c2)CN(C2CCC(=O)NC2=O)C3=O)cc1` (stereo partly drawn) [Compound I-50ef], the Dmax (HEK-293T, read-out: % degradation of WIZ (100-Amax)) was 85.2%. Moreover, the remaining activity (HEK-293T, read-out: WIZ Amax) is 14.8%. Under “read-out: WIZ AC50; WIZ HiBit assay in 293T cells; 10-point, 5-fold dose response, highest concentration 25 μM, about 18 hours”, the DC50 is 1460 nM.
For `O=C1CCC(N2Cc3cc(OC[C@H]4CCCCN4Cc4ccc(-n5nccn5)cc4)ccc3C2=O)C(=O)N1` (stereo partly drawn) [Compound I-50eg], the Dmax under setting [1] came out at 99.6%. Moreover, the remaining activity at up to 25 µM under setting [2] is 0.4%. Besides, the DC50 under setting [3] worked out at 4 nM.
The corresponding values for `O=C1CCC(N2Cc3cc(OC[C@H]4CCCCN4Cc4cccc(Cn5ccnc5)c4)ccc3C2=O)C(=O)N1` (stereo partly drawn) [Compound I-50eh] are 97.2%, 2.8% and 13 nM.
The corresponding values for `O=C1CCC(N2Cc3cc(OC[C@H]4CCCCN4Cc4cc(-n5nnnc5C(F)(F)F)ccc4O)ccc3C2=O)C(=O)N1` (stereo partly drawn) [Compound I-50ei] are 31.4%, 68.6% and over 25000 nM.
With `O=C1CCC(N2Cc3cc(OC[C@H]4CCCCN4Cc4ncccc4O)ccc3C2=O)C(=O)N1` (stereo partly drawn) [Compound I-50ej], under setting [1], the Dmax was 17.2%. The remaining activity at up to 25 µM under setting [2] worked out at 82.8%. Moreover, under setting [3], the DC50 was over 25000 nM.
As for `O=C1CCC(N2Cc3cc(OC[C@H]4CCCCN4Cc4ccc(Cn5ccnc5)cc4)ccc3C2=O)C(=O)N1` (stereo partly drawn) [Compound I-50ek], the Dmax under setting [1] stood at 99.1%. Besides, the remaining activity at up to 25 µM under setting [2] was determined as 0.9%. Also, the DC50 under setting [3] was 4 nM.
Turning to `Cc1noc(C)c1CN1CCCC[C@@H]1COc1ccc2c(c1)CN(C1CCC(=O)NC1=O)C2=O` (stereo partly drawn) [Compound I-50el], the Dmax under setting [1] was found to be 30.3%. Also, the remaining activity at up to 25 µM under setting [2] was 69.7%. Moreover, the DC50 under setting [3] was over 25000 nM.
Take `O=C1CCC(N2Cc3cc(OC[C@H]4CCCCN4Cc4cccc(Cn5cccn5)c4)ccc3C2=O)C(=O)N1` (stereo partly drawn) [Compound I-50en]: the Dmax under setting [1] was 99.8%. Besides, the remaining activity at up to 25 µM under setting [2] worked out at 0.2%. Under setting [3], the DC50 is 4 nM.
For `CCn1cc(CN2CCCC[C@@H]2COc2ccc3c(c2)CN(C2CCC(=O)NC2=O)C3=O)cn1` (stereo partly drawn) [Compound I-50eo], in that order: 94%, 6% and 74 nM.
As to `Cc1nnsc1CN1CCCC[C@@H]1COc1ccc2c(c1)CN(C1CCC(=O)NC1=O)C2=O` (stereo partly drawn) [Compound I-50ep], the Dmax under setting [1] is 12.4%. Under setting [2], the remaining activity at up to 25 µM was 87.6%. Moreover, the DC50 under setting [3] is over 25000 nM.
Regarding `Cc1cc(CN2CCCC[C@@H]2COc2ccc3c(c2)CN(C2CCC(=O)NC2=O)C3=O)no1` (stereo partly drawn) [Compound I-50eq], under setting [1], the Dmax came to 88.4%. Further, the remaining activity at up to 25 µM under setting [2] turned out to be 11.6%. Under setting [3], the DC50 amounted to 272 nM.
The corresponding values for `CCOC(=O)c1cccc2[nH]nc(CN3CCCC[C@@H]3COc3ccc4c(c3)CN(C3CCC(=O)NC3=O)C4=O)c12` (stereo partly drawn) [Compound I-50er] are 89.8%, 10.2% and 920 nM.
The corresponding values for `O=C1CCC(N2Cc3cc(OC[C@H]4CCCCN4Cc4ccc(N5CCCC5)nc4)ccc3C2=O)C(=O)N1` (stereo partly drawn) [Compound I-50es] are 99.5%, 0.5% and 3 nM.
Consider `O=C1CCC(N2Cc3cc(OC[C@H]4CCCCN4Cc4ncc[nH]4)ccc3C2=O)C(=O)N1` (stereo partly drawn) [Compound I-50et], for which the Dmax under setting [1] came to 49.1%. Also, under setting [2], the remaining activity at up to 25 µM came out at 50.9%. Moreover, under setting [3], the DC50 was over 25000 nM.
Regarding `COc1cc(CN2CCCC[C@@H]2COc2ccc3c(c2)CN(C2CCC(=O)NC2=O)C3=O)ccc1C` (stereo partly drawn) [Compound I-50eu], the Dmax under setting [1] was 99.3%. For the same compound, the remaining activity at up to 25 µM under setting [2] came to 0.7%. In addition, under setting [3], the DC50 was found to be 3 nM.
With `COc1cc2[nH]nc(CN3CCCC[C@@H]3COc3ccc4c(c3)CN(C3CCC(=O)NC3=O)C4=O)c2cc1OCc1ccccc1` (stereo partly drawn) [Compound I-50ev], the Dmax under setting [1] is 98%. Besides, under setting [2], the remaining activity at up to 25 µM is 2%. The DC50 under setting [3] was 51 nM.
On to `Cc1nccn1-c1ccc(CN2CCCC[C@@H]2COc2ccc3c(c2)CN(C2CCC(=O)NC2=O)C3=O)cc1` (stereo partly drawn) [Compound I-50ew], for which the Dmax under setting [1] amounted to 99.3%. Under setting [2], the remaining activity at up to 25 µM came to 0.7%. Besides, under setting [3], the DC50 is 26 nM.
The corresponding values for `O=C1CCC(N2Cc3cc(OC[C@@H]4CCCCN4Cc4cccn4S(=O)(=O)c4ccccc4)ccc3C2=O)C(=O)N1` (stereo partly drawn) [Compound I-50f] are 82.6%, 17.4% and 816 nM.
For `COC(=O)c1ccc(Oc2ccc(CN3CCCC[C@H]3COc3ccc4c(c3)CN(C3CCC(=O)NC3=O)C4=O)cc2)cc1` (stereo partly drawn) [Compound I-50g], in that order: 88.9%, 11.1% and 97 nM.
For `N#Cc1ccccc1CN1CCCC[C@H]1COc1ccc2c(c1)CN(C1CCC(=O)NC1=O)C2=O` (stereo partly drawn) [Compound I-50h], in that order: 59.4%, 40.6% and 13600 nM.
For the compound `Cc1nnc(-c2ccc(CN3CCCC[C@H]3COc3ccc4c(c3)CN(C3CCC(=O)NC3=O)C4=O)cc2)o1` (stereo partly drawn) [Compound I-50i], under setting [1], the Dmax is 28.8%. Moreover, the remaining activity at up to 25 µM under setting [2] is 71.2%. Moreover, the DC50 under setting [3] was over 25000 nM.
The corresponding values for `O=C1CCC(N2Cc3cc(OC[C@@H]4CCCCN4Cc4ccc(C(=O)N5CCCC5)cc4)ccc3C2=O)C(=O)N1` (stereo partly drawn) [Compound I-50j] are 65.4%, 34.6% and 3490 nM.
The corresponding values for `O=C1CCC(N2Cc3cc(OC[C@@H]4CCCCN4Cc4ccc[nH]c4=O)ccc3C2=O)C(=O)N1` (stereo partly drawn) [Compound I-50k] are 34.7%, 65.3% and over 25000 nM.
